Values of other authors as cited in patent US20100055044A1, “Ruthenium compounds and compositions” (priority 2008, published 2010).
Read-outs that look alike come from different tables or passages of the source.

Tested on: Alveolar adenocarcinoma, breast adenocarcinoma, uterine carcinosarcoma, and endometrial carcinoma cells
Details: 8 days

SMILES: O=[O+][O-] [ozone]
- cell growth inhibition (0.3 ppm ozone in air): 40%
- cell growth inhibition (0.5 ppm ozone in air): 60%
- cell growth inhibition (0.8 ppm ozone in air, cancerous cells): 90%
